Assays:
[1] = animal models, after oral ingestion; cited from earlier work
human subjects = assay: Drug-assisted psychotherapy in individuals for whom MDMA therapy is ineffective; format: in vivo
From the text: Inter alia, 5-MAPB or 6-APB-assisted psychotherapy is effective in post-traumatic stress disorder (PTSD) therapy, couple's therapy, and therapy for anxiety disorders.

| SMILES | apparent plasma half-life [1] | therapeutic efficacy in the psychotherapeutic context (human subjects) |
| --- | --- | --- |
| CNC(C)Cc1ccc2occc2c1 (stereo not shown) [5-MAPB, 1-(Benzofuran-5-yl)-N-methylpropan-2-amine] | approximately 1 hour | significant enhancement of therapeutic efficacy |
| CC(N)Cc1ccc2ccoc2c1 (stereo not shown) [6-APB, 1-Benzofuran-6-yl propan-2-amine] | approximately 1 hour | significant enhancement of therapeutic efficacy |
